Test: overt toxicity in mice after intraperitoneal dosing
Format: in vivo
Conditions: intraperitoneally, 50 mg./kg.

## C/N=C(\NC#N)Nc1cccc(-c2csc(N=C(N)N)n2)c1 [Example 2, 2-guanidino-4-[3-(2-cyano-3-methylguanidino)phenyl]thiazole]
  overt toxicity: no overt toxicity
